According to ChEMBL document CHEMBL1152491, “Synthesis and evaluation of antibacterial activities of andrographolide analogues” (2009):
Activity calls are given as the source filed them. The rule behind the calls is not given here.

What was measured:
Pseudomonas aeruginosa [1] = assay: Growth inhibition of Pseudomonas aeruginosa PAO1 assessed as survival rate at 3.75 ug/mL after 20 hrs; format: functional; details: PAO1, 20 h
Pseudomonas aeruginosa [2] = assay: Inhibition of Pseudomonas aeruginosa PAO1 biofilm formation cultivated on respiratory tack suction tube at 1 mM after 3 days by scanning electron microscopy; format: functional, organism-based
Pseudomonas aeruginosa [3] = assay: Growth inhibition of Pseudomonas aeruginosa PAO1 at 1 mM after 25 hrs; format: functional, organism-based
Pseudomonas aeruginosa [4] = assay: Antibacterial activity against Pseudomonas aeruginosa at 0.05 mg/disk after 25 hrs; format: functional
Escherichia coli = assay: Antibacterial activity against Escherichia coli at 0.05 mg/disk after 25 hrs; format: functional
Staphylococcus aureus [5] = assay: Antibacterial activity against methicillin-resistant Staphylococcus aureus 5677 at 0.05 mg/disk after 25 hrs; format: functional
Staphylococcus aureus [6] = assay: Antibacterial activity against methicillin-resistant Staphylococcus aureus 5676 at 0.05 mg/disk after 25 hrs; format: functional
[7] = test system: Pseudomonas aeruginosa PAO1; assay: Inhibition of Pseudomonas aeruginosa PAO1 quorum sensing assessed as inhibition of pycocyanin production at 1 mM after 18 hrs
Pseudomonas aeruginosa [8] = assay: Growth inhibition of Pseudomonas aeruginosa PAO1 assessed as survival rate at 538 ug/mL after 20 hrs; format: functional; details: PAO1, 20 h
[9] = test system: Pseudomonas aeruginosa PAO1; assay: Inhibition of Pseudomonas aeruginosa PAO1 quorum sensing assessed as suppression of protease production at 1 mM after 18 hrs by azocasein-based colorimetric method
[10] = test system: Pseudomonas aeruginosa PAO1; assay: Inhibition of Pseudomonas aeruginosa PAO1 quorum sensing assessed as suppression of protease production at 0.1 mM after 18 hrs by azocasein-based colorimetric method
Staphylococcus aureus [11] = assay: Antibacterial activity against Staphylococcus aureus at 0.05 mg/disk after 25 hrs; format: functional
Candida albicans = assay: Antifungal activity against Candida albicans at 0.05 mg/disk after 25 hrs; format: functional, organism-based
Pseudomonas aeruginosa [12] = assay: Inhibition of Pseudomonas aeruginosa PAO1 quorum sensing assessed as inhibition of pycocyanin production at 0.1 mM after 18 hrs; format: functional, organism-based
Pseudomonas aeruginosa [13] = assay: Inhibition of Pseudomonas aeruginosa PAO1 biofilm formation cultivated on respiratory tack suction tube at 1 mM after 7 days by scanning electron microscopy; format: functional, organism-based
Pseudomonas aeruginosa [14] = assay: Growth inhibition of Pseudomonas aeruginosa PAO1 assessed as population density at 1 mM after 15 hrs by atomic force microscopy; format: functional, organism-based
Bacillus subtilis = assay: Antibacterial activity against Bacillus subtilis at 0.05 mg/disk after 25 hrs; format: functional
[15] = test system: Pseudomonas aeruginosa PAO1; assay: Inhibition of Pseudomonas aeruginosa PAO1 quorum sensing assessed as suppression of protease production at 10 mM after 18 hrs by azocasein-based colorimetric method
Pseudomonas aeruginosa [16] = assay: Growth inhibition of Pseudomonas aeruginosa PAO1 at 10 mM after 25 hrs; format: functional, organism-based
[17] = test system: Pseudomonas aeruginosa PAO1; assay: Inhibition of Pseudomonas aeruginosa PAO1 quorum sensing assessed as inhibition of pycocyanin production at 10 mM after 18 hrs
Pseudomonas aeruginosa [18] = assay: Growth inhibition of Pseudomonas aeruginosa PAO1 assessed as survival rate at 0.017 ug/mL after 20 hrs; format: functional; details: PAO1, 20 h

## CC[C@H]1OC(=O)[C@H](C)[C@@H](O[C@H]2C[C@@](C)(OC)[C@@H](O)[C@H](C)O2)[C@H](C)[C@@H](O[C@@H]2O[C@H](C)C[C@H](N(C)C)[C@H]2O)[C@](C)(O)C[C@@H](C)C(=O)[C@H](C)[C@@H](O)[C@]1(C)O [ERYTHROMYCIN]
Pseudomonas aeruginosa [1]
  survival at 3.75 µg/mL: 93.5%

## C=C1CC[C@@H]2[C@](C)(CO)[C@H](O)CC[C@@]2(C)[C@@H]1C/C=C1/C(=O)OC[C@H]1OC(=O)CCCCC1CCSS1 (stereo not given in full)
Pseudomonas aeruginosa [2]
  Activity: Active
Pseudomonas aeruginosa [3]
  Activity: Active
Pseudomonas aeruginosa [4]
  diameter of the inhibition zone (DIZ): <4 mm
Escherichia coli
  diameter of the inhibition zone (DIZ): <4 mm
Staphylococcus aureus [5]
  diameter of the inhibition zone (DIZ): 4.1 mm
Staphylococcus aureus [6]
  diameter of the inhibition zone (DIZ): 6.9 mm
[7]
  Activity: Active
Pseudomonas aeruginosa [8]
  survival at 538 µg/mL: 84%
[9]
  Activity: Active
[10]
  Activity: Active
Staphylococcus aureus [11]
  diameter of the inhibition zone (DIZ): 4.9 mm
Candida albicans
  Activity: inactive
Pseudomonas aeruginosa [12]
  Activity: Active
Pseudomonas aeruginosa [13]
  Activity: Active
Pseudomonas aeruginosa [14]
  Activity: Active
Bacillus subtilis
  diameter of the inhibition zone (DIZ): <4 mm

## C=C1CC[C@@H]2[C@](C)(CO)[C@H](O)CC[C@@]2(C)[C@@H]1C/C=C1/C(=O)OC[C@H]1OC(=O)/C=C/c1ccc([N+](=O)[O-])cc1
Pseudomonas aeruginosa [4]
  diameter of the inhibition zone (DIZ): <4 mm
Escherichia coli
  diameter of the inhibition zone (DIZ): <4 mm
Staphylococcus aureus [5]
  diameter of the inhibition zone (DIZ): 6.4 mm
Staphylococcus aureus [6]
  diameter of the inhibition zone (DIZ): 8.1 mm
[7]
  Activity: Active
[9]
  Activity: Active
[10]
  Activity: Active
Staphylococcus aureus [11]
  diameter of the inhibition zone (DIZ): 8.3 mm
Candida albicans
  Activity: inactive
Pseudomonas aeruginosa [12]
  Activity: Active
Bacillus subtilis
  diameter of the inhibition zone (DIZ): <4 mm

## C=C1CC[C@@H]2[C@](C)(CO)[C@H](O)CC[C@@]2(C)[C@@H]1C/C=C1/C(=O)OC[C@H]1OC(=O)CN.Cl
Pseudomonas aeruginosa [2]
  Activity: inactive
Pseudomonas aeruginosa [3]
  Activity: Active
Pseudomonas aeruginosa [4]
  diameter of the inhibition zone (DIZ): <4 mm
Escherichia coli
  diameter of the inhibition zone (DIZ): <4 mm
Staphylococcus aureus [5]
  diameter of the inhibition zone (DIZ): 5.2 mm
Staphylococcus aureus [6]
  diameter of the inhibition zone (DIZ): 8.7 mm
[7]
  Activity: Active
[9]
  Activity: Active
[10]
  Activity: Active
Staphylococcus aureus [11]
  diameter of the inhibition zone (DIZ): 9.3 mm
Candida albicans
  Activity: inactive
Pseudomonas aeruginosa [12]
  Activity: Active
Pseudomonas aeruginosa [13]
  Activity: inactive
Pseudomonas aeruginosa [14]
  Activity: Active
Bacillus subtilis
  diameter of the inhibition zone (DIZ): <4 mm

## C=C1CC[C@@H]2[C@](C)(CO)[C@H](O)CC[C@@]2(C)[C@@H]1C/C=C1/C(=O)OC[C@H]1O [ANDROGRAPHOLIDE]
Pseudomonas aeruginosa [2]
  Activity: inactive
Pseudomonas aeruginosa [3]
  Activity: Active
Pseudomonas aeruginosa [4]
  diameter of the inhibition zone (DIZ): <4 mm
Escherichia coli
  diameter of the inhibition zone (DIZ): <4 mm
[9]
  Activity: Active
[10]
  Activity: Active
Staphylococcus aureus [11]
  diameter of the inhibition zone (DIZ): <4 mm
Pseudomonas aeruginosa [13]
  Activity: inactive
Pseudomonas aeruginosa [14]
  Activity: inactive
Bacillus subtilis
  diameter of the inhibition zone (DIZ): <4 mm

## C=C1CC[C@@H]2[C@](C)(CO)[C@H](O)CC[C@@]2(C)[C@@H]1CC(C1=CCOC1=O)S(=O)(=O)[O-].[Na+] (stereo not given in full)
Pseudomonas aeruginosa [4]
  diameter of the inhibition zone (DIZ): <4 mm
Escherichia coli
  diameter of the inhibition zone (DIZ): <4 mm
[15]
  Activity: Active
Pseudomonas aeruginosa [16]
  Activity: inactive
[10]
  Activity: Active
[17]
  Activity: Active
Staphylococcus aureus [11]
  diameter of the inhibition zone (DIZ): <4 mm
Candida albicans
  Activity: inactive
Pseudomonas aeruginosa [12]
  Activity: inactive
Bacillus subtilis
  diameter of the inhibition zone (DIZ): <4 mm

## O=C(O)c1cn(C2CC2)c2cc(N3CCNCC3)c(F)cc2c1=O [CIPROFLOXACIN]
Pseudomonas aeruginosa [18]
  survival at 0.017 µg/mL: 85%

## C=C1CC[C@@H]2[C@](C)(CO)[C@H](O)CC[C@@]2(C)[C@@H]1C/C=C1/C(=O)OC[C@H]1OC(=O)CNC(=O)OC(C)(C)C
Pseudomonas aeruginosa [4]
  diameter of the inhibition zone (DIZ): <4 mm
Escherichia coli
  diameter of the inhibition zone (DIZ): <4 mm
Staphylococcus aureus [5]
  diameter of the inhibition zone (DIZ): 7.6 mm
Staphylococcus aureus [6]
  diameter of the inhibition zone (DIZ): 8.4 mm
[7]
  Activity: Active
[9]
  Activity: Active
[10]
  Activity: Active
Staphylococcus aureus [11]
  diameter of the inhibition zone (DIZ): 10.2 mm
Candida albicans
  Activity: inactive
Pseudomonas aeruginosa [12]
  Activity: Active
Bacillus subtilis
  diameter of the inhibition zone (DIZ): <4 mm
